Results on nine compounds are retold here after US11078207B2, “Substituted pyrrolo[2,3-d]pyrimidines as HER2 inhibitors” (TAIHO PHARMACEUTICAL CO., LTD., priority 2019, dated 2021).

Where two headings read alike, the source gives them in different places. Where only a bound is given, the exact number is not on record here.

In one data set the target is Ba/F3-HER2insYVMA cells (Homo sapiens, UniProt P04626, DUP772-775, cells depend on it). Description: Growth inhibitory activity against HER2 exon 20 insertion mutant expressing cell line. The class given is cell-based, mouse. The conditions noted are these: 3 days, CellTiter-Glo 2.0, read-out: HER2ex20insYVMA cell growth inhibitory activity IC50 value.
Chain of Ba/F3-HER2insYVMA cells (P04626 with tags, fused parts or gaps DUP772-775): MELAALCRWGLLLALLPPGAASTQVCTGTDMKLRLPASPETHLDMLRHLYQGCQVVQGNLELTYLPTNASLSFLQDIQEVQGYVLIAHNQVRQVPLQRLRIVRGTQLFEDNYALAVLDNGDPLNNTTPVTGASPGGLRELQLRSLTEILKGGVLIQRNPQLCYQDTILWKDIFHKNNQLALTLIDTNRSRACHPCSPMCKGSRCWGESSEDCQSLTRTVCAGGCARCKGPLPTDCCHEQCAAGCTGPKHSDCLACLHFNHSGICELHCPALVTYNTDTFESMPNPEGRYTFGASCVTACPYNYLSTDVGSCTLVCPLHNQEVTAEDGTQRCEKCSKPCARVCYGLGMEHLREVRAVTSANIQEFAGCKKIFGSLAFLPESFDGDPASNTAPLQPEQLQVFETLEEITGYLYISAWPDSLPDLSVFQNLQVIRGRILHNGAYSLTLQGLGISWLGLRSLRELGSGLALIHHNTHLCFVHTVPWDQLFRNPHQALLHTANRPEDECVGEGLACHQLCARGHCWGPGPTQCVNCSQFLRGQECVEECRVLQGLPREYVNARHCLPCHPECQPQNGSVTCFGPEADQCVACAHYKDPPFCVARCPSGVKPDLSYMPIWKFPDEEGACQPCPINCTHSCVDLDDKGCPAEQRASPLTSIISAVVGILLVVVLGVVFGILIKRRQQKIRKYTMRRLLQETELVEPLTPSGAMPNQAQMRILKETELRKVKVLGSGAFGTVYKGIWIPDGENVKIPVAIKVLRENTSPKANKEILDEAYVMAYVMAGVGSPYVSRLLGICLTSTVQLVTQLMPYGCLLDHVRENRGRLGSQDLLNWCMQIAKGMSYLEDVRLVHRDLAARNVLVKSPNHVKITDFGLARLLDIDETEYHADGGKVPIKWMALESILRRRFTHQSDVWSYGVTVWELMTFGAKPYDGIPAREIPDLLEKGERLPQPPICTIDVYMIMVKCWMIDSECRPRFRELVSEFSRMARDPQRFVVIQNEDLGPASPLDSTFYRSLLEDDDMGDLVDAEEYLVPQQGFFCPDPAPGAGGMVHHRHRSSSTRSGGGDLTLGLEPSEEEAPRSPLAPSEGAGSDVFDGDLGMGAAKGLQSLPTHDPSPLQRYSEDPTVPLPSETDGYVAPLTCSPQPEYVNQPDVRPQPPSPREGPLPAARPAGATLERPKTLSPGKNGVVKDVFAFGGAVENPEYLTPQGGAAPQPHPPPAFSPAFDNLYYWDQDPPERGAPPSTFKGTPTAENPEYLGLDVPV
The next data set has as its system SK-BR-3 cells. Description: Growth inhibitory activity against HER2 expressing cell line SK-BR-3. The class given is cell-based. The note with it: Homo sapiens, SK-BR-3, 72 h; 3 days, CellTiter-Glo 2.0. Summed up: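 SK-BR-3 cells in McCoy's 5a with 10% FBS, pre-cultured 1 day, then exposed to compound (final DMSO 0.2%) for 3 days at 37° C, 5% CO2. Viability by CellTiter-Glo 2.0 luminescence; growth inhibition % = (C−T)/C×100 versus untreated wells.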

Data set [1] addresses HER2 exon 20 insertion mutant (HER2ex20insYVMA, A775_G776insYVMA) (Homo sapiens, UniProt P04626, DUP772-775). As to the kind of experiment: Inhibitory action (in vitro) against HER2 exon 20 insertion mutant phosphorylation activity. It is filed as biochemical. The conditions noted are these: 30 min pre-incubation, ATP 200 μM, 25° C. 220 minutes. Summed up: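 Purified recombinant human HER2 A775_G776insYVMA pre-incubated with compound (5% DMSO) 30 min at 25 °C in Tris pH 7.5 buffer; reaction with 1 μM ProfilerPro Peptide 22, 200 μM ATP, 25 mM MnCl2, 20 mM MgCl2 for 220 min at 25 °C, stopped with EDTA. Phosphorylated and unphosphorylated peptide separated by microchannel capillary electrophoresis.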

For a further data set, the target named is T1, HER2 (Homo sapiens, UniProt P04626).
T1 construct: purchased Carna Biosciences, Inc
T1 sequence (P04626 23-1255): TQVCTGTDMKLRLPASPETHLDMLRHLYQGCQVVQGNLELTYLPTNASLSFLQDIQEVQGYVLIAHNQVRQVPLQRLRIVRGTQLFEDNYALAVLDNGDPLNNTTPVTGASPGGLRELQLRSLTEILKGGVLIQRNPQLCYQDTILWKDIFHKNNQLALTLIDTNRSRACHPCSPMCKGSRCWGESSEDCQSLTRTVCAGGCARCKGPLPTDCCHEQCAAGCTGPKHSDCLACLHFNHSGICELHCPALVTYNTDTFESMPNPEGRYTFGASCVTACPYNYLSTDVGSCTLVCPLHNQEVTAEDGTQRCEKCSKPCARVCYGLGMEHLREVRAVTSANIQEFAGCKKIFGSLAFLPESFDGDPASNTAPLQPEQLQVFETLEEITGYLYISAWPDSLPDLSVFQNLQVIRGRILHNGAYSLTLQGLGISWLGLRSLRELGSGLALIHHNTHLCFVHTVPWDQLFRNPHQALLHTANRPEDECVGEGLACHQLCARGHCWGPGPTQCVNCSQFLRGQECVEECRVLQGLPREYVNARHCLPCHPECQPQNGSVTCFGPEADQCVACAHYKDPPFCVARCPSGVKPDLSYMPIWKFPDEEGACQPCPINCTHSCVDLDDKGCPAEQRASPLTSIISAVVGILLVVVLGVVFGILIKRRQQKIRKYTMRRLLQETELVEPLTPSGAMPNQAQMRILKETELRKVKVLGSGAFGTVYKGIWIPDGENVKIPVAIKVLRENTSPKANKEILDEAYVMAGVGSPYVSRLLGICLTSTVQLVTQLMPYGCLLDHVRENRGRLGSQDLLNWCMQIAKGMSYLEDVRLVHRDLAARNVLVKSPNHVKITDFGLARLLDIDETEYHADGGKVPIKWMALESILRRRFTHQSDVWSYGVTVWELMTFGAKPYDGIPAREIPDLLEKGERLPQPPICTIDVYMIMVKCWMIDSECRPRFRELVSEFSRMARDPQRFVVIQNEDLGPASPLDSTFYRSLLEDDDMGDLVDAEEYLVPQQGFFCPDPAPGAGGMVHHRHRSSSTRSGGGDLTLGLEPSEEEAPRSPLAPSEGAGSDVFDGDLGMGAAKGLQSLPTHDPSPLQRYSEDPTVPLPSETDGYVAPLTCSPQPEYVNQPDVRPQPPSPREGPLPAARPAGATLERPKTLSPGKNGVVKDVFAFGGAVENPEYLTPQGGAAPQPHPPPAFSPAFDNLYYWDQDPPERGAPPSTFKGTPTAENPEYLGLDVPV
Description: Inhibitory effect (in vitro) on HER2 phosphorylation activity. The class given is biochemical. The note with it: recombinant human HER2, ATP 5 μM, 25° C. 30 minutes. Summed up: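 Purified recombinant human HER2 phosphorylating 5-FAM-labeled ProfilerPro Peptide 22 substrate, compounds serially diluted in DMSO. Reaction stopped with EDTA at 30 mM final; unphosphorylated and phosphorylated peptides separated and detected by microchannel capillary electrophoresis.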

Data set [2] in a line: Evaluation of oral absorbability. It is filed as in vivo, BALB/cA mice. The note with it: mouse; plasma, oral 50 mg/kg/day, BALB/cA mice.
Data set [3] is described as follows: Evaluation of brain penetration properties. The class given is in vivo, BALB/cA mice. The note with it: mouse, 0.5 hours after oral 50 mg/kg/day, BALB/cA mice; for Kp at 0.5 h: read-out: Kp value (Compound concentration in brain/plasma).
The mark [4] stands for this setting: brain, read-out: Compound concentration in brain.
Setting [5] is: plasma, read-out: Compound concentration in plasma.

Chain of HER2 exon 20 insertion mutant (HER2ex20insYVMA, A775_G776insYVMA) (P04626 with tags, fused parts or gaps DUP772-775): as the sequence (P04626 with tags, fused parts or gaps DUP772-775) above

Regarding `C=CC(=O)N1C[C@H](n2c(C#CC3CC3)c(C(=O)N[C@H](C)c3ccccc3)c3c(N)ncnc32)C[C@@H]1CC` [Example 17, 7-((3R,5S)-1-acryloyl-5-ethylpyrrolidin-3-yl)-4-amino-6-(cyclopropylethynyl)-N—((R)-1-phenylethyl)-7H-pyrrolo[2,3-d]pyrimidine-5-carboxamide], the GI50 at Ba/F3-HER2insYVMA cells turned out to be 20 nM. In addition, the IC50 in the data set on SK-BR-3 cells worked out at 4 nM; in data set [1], 0.54 nM; at HER2 it was 2.9 nM. In data set [2], this compound gave an AUC(0-t) of 21 µM·h. In addition, the concentration at 0.5 h in data set [3] (setting [4]) turned out to be 6.5 µM; in data set [3] (setting [5]), 17 µM. Further, in data set [3] (brain), the Kp at 0.5 h is 0.39.

For `C=CC(=O)N1C[C@H](n2c(C#CC(C)(C)OC)c(C(=O)N[C@H](C)c3ccccc3)c3c(N)ncnc32)C[C@@H]1C` [Example 13, 7-((3R,5S)-1-acryloyl-5-methylpyrrolidin-3-yl)-4-amino-6-(3-methoxy-3-methylbut-1-yn-1-yl)-N—((R)-1-phenylethyl)-7H-pyrrolo[2,3-d]pyrimidine-5-carboxamide], the GI50 on Ba/F3-HER2insYVMA cells was 23 nM. The IC50 worked out at 14 nM in the data set with SK-BR-3 cells, 0.44 nM in data set [1] and 5.2 nM on HER2. For the same compound, in data set [2], the AUC(0-t) was 18 µM·h. The concentration at 0.5 h in data set [3] (setting [4]) amounted to 2.8 µM; in data set [3] (setting [5]), 13 µM. Also, in data set [3] (brain), the Kp at 0.5 h turned out to be 0.22.

Consider `C=CC(=O)N1C[C@H](n2c(C#CC3CC3)c(C(=O)N[C@H](C)c3cccc(F)c3F)c3c(N)ncnc32)C[C@@H]1C` [Example 10, 7-((3R,5S)-1-acryloyl-5-methylpyrrolidin-3-yl)-4-amino-6-(cyclopropylethynyl)-N—((R)-1-(2,3-difluorophenyl)ethyl)-7H-pyrrolo[2,3-d]pyrimidine-5-carboxamide], for which, on Ba/F3-HER2insYVMA cells, the GI50 was determined as 29 nM. For the same compound, the IC50 was 13 nM in the data set on SK-BR-3 cells, below 0.3 nM in data set [1] and 2.2 nM on HER2. Besides, the AUC(0-t) in data set [2] is 50 µM·h. Also, the concentration at 0.5 h in data set [3] (setting [4]) stood at 2.4 µM; in data set [3] (setting [5]) it was 13 µM. For the same compound, in data set [3] (brain), the Kp at 0.5 h was 0.18.

Regarding `C=CC(=O)N1C[C@H](n2c(C#CC3CC3)c(C(=O)NC(C)(C)c3ccccc3)c3c(N)ncnc32)C[C@@H]1C` [Example 9, 7-((3R,5S)-1-acryloyl-5-methylpyrrolidin-3-yl)-4-amino-6-(cyclopropylethynyl)-N-(2-phenylpropan-2-yl)-7H-pyrrolo[2,3-d]pyrimidine-5-carboxamide], the GI50 on Ba/F3-HER2insYVMA cells is 24 nM. Besides, the IC50 in the data set on SK-BR-3 cells turned out to be 4.2 nM; in data set [1], 0.32 nM; on HER2, 5.6 nM. In data set [2], this compound displayed an AUC(0-t) of 51 µM·h. Also, the values for the concentration at 0.5 h in data set [3] (setting [4]) and in data set [3] (setting [5]) were 2.4 µM and 13 µM, respectively. For the same compound, the Kp at 0.5 h in data set [3] (brain) is 0.18.

Take `C=CC(=O)N1C[C@H](n2c(C#CC(C)(C)C)c(C(=O)N[C@H](C)c3ccccc3)c3c(N)ncnc32)C[C@@H]1C` [Example 12, 7-((3R,5S)-1-acryloyl-5-methylpyrrolidin-3-yl)-4-amino-6-(3,3-dimethylbut-1-yn-1-yl)-N—((R)-1-phenylethyl)-7H-pyrrolo[2,3-d]pyrimidine-5-carboxamide]: the GI50 on Ba/F3-HER2insYVMA cells amounted to 43 nM. For the same compound, the values for the IC50 (in the data set on SK-BR-3 cells; in data set [1]; on HER2) were 17 nM, 0.39 nM and 3.4 nM, respectively. In data set [2], this compound showed an AUC(0-t) of 36 µM·h. In addition, the results for the concentration at 0.5 h in data set [3] (setting [4]) and in data set [3] (setting [5]) were 3.2 µM and 11 µM, respectively. For the same compound, in data set [3] (brain), the Kp at 0.5 h amounted to 0.29.

Consider `C=CC(=O)N1C[C@H](n2c(C#CC)c(C(=O)NC(C)(C)c3ccccc3)c3c(N)ncnc32)C[C@@H]1C` [Example 3, 7-((3R,5S)-1-acryloyl-5-methylpyrrolidin-3-yl)-4-amino-N-(2-phenylpropan-2-yl)-6-(prop-1-yn-1-yl)-7H-pyrrolo[2,3-d]pyrimidine-5-carboxamide], for which, at Ba/F3-HER2insYVMA cells, the GI50 was 25 nM. Further, the values for the IC50 (with SK-BR-3 cells; in data set [1]; at HER2) were 4.5 nM, below 0.3 nM and 5.8 nM, respectively. The compound also registered an AUC(0-t) in data set [2] of 24 µM·h. Besides, the concentration at 0.5 h in data set [3] (setting [4]) came to 1.4 µM; in data set [3] (setting [5]) it was 11 µM. The Kp at 0.5 h in data set [3] (brain) came to 0.13.

With `C=CC(=O)N1C[C@H](n2c(C#CC)c(C(=O)NC(C)(C)c3ccccc3F)c3c(N)ncnc32)C[C@@H]1C` [Example 5, 7-((3R,5S)-1-acryloyl-5-methylpyrrolidin-3-yl)-4-amino-N-(2-(2-fluorophenyl)propan-2-yl)-6-(prop-1-yn-1-yl)-7H-pyrrolo[2,3-d]pyrimidine-5-carboxamide], the GI50 on Ba/F3-HER2insYVMA cells stood at 14 nM. Besides, the IC50 came to 4 nM with SK-BR-3 cells, 0.38 nM in data set [1] and 7.7 nM on HER2. Moreover, the AUC(0-t) in data set [2] was 20 µM·h. In addition, the concentration at 0.5 h is 2.2 µM in data set [3] (setting [4]) and 15 µM in data set [3] (setting [5]). Besides, in data set [3] (brain), the Kp at 0.5 h was 0.15.

As to `C=CC(=O)N1C[C@H](n2c(C#CC)c(C(=O)N[C@H](C)c3cccc(Cl)c3)c3c(N)ncnc32)C[C@@H]1C` [Example 6, 7-((3R,5S)-1-acryloyl-5-methylpyrrolidin-3-yl)-4-amino-N—((R)-1-(3-chlorophenyl)ethyl)-6-(prop-1-yn-1-yl)-7H-pyrrolo[2,3-d]pyrimidine-5-carboxamide], at Ba/F3-HER2insYVMA cells, the GI50 turned out to be 28 nM. Besides, the IC50 with SK-BR-3 cells was 10 nM; in data set [1], below 0.3 nM; at HER2 it was 2.8 nM. In data set [2], this compound gave an AUC(0-t) of 17 µM·h. The figures for the concentration at 0.5 h in data set [3] (setting [4]) and in data set [3] (setting [5]) were 1.3 µM and 7.5 µM, respectively. Besides, the Kp at 0.5 h in data set [3] (brain) turned out to be 0.17.

Turning to `C=CC(=O)N1C[C@H](n2c(C#CC3CC3)c(C(=O)N[C@H](C)c3ccccc3)c3c(N)ncnc32)C[C@@H]1COC` [Example 18, 7-((3R,5R)-1-acryloyl-5-(methoxymethyl)pyrrolidin-3-yl)-4-amino-6-(cyclopropylethynyl)-N—((R)-1-phenylethyl)-7H-pyrrolo[2,3-d]pyrimidine-5-carboxamide], the GI50 at Ba/F3-HER2insYVMA cells worked out at 14 nM. Moreover, the values for the IC50 (with SK-BR-3 cells; in data set [1]; at HER2) were 3.4 nM, below 0.3 nM and 2.3 nM, respectively. For the same compound, in data set [2], the AUC(0-t) was determined as 15 µM·h. Moreover, the concentration at 0.5 h in data set [3] (setting [4]) was 1.6 µM; in data set [3] (setting [5]), 7.7 µM. For the same compound, in data set [3] (brain), the Kp at 0.5 h was 0.22.
